According to paper PMC9241669, “Allantodapsone is a Pan-Inhibitor of Staphylococcus aureus Adhesion to Fibrinogen, Loricrin, and Cytokeratin 10” (Microbiology Spectrum, 2022):
Several values for one entry are separate records, joined by “and”; a condition that tells them apart may be missing. Equal values may be shown once. Read-outs that look alike come from different tables or passages of the source.

Legend:
U-937 cells = type: cell-based, human; conditions: 100 μM, undifferentiated U-937 monocyte cells, n=2, preliminary
Experimental: V. Microbiology: Materials and Methods
The MTT toxicity assay (1) (Vybrant MTT Cell Proliferation Assay, Molecular Probes, Or, USA) was used to measure cytotoxicity. Myeloid lineage, U-937 cells (2) were grown in RPMI-1640 (Gibco) culture medium supplemented with 10% foetal calf serum, 1% L-glutamine and 1% Penicillin/Streptomycin (Gibco). U-937 cells were centrifuged and cells diluted with fresh medium containing 1.2 mM MTT solution to a concentration of (5-6 x 10^6 per mL) and incubated at 37 °C for 2 h. Cells were centrifuged and the pellet dissolved in DMSO. The absorbance was read at 490 nm using the Wallac Victor2, (Shelton, Connecticut, USA).
Platelet aggregation was performed in platelet rich plasma according to O’Brien et al.
S. aureus Newman (stationary phase) was washed and diluted to an OD600 of 2.5.
This was mixed with 10 mg/mL of fibrinogen in 1:1 ratio resulting in a final concentration 5 mg/mL fibrinogen. Fibrinogen -bacteria aggregates clump and settle at the bottom of the tube resulting in a clear solution. These were compared to the turbid bacterial suspension in buffer by visual inspection. […]
was tested for toxicity using the MTT assay (VybrantTM MTT Cell Proliferation Assay, Molecular Probes, OR, USA). 10% DMSO is used as a positive control in this assay.
Allantodapsone was incubated with undifferentiated U-937 monocyte cells at 100
µM. […]

S. aureus SH1000 [1] = assay: Adhesion of S. aureus SH1000 to fibronectin; type: cell-based, Staphylococcus aureus; conditions: fibronectin 20 μg/mL, Fig. S2
Experimental: (§1) Adhesion assays were carried out according to Hartford et al. ([37]). Briefly, plates were coated with 10 μg/mL fibrinogen (Calbiochem, Darmstadt, Germany) or 20 μg/mL fibronectin (Sigma-Aldrich, Ireland) for 2 h at 37°C or for 16 h at 4°C. Plates were blocked with 1% BSA at 37°C for 1 h and washed 3 times in PBS. Washed bacteria were incubated at 37°C for 2 h. Adherent bacteria were washed three times in PBS and fixed in 5–9% formaldehyde at room temperature for 30 min. Wells were washed three times in PBS and stained using 5% crystal violet for 20 min. Wells were washed three times in PBS, and the crystal violet solubilized using 5% acetic acid. Plates were read at 570 nm on a Wallac Victor2, (Shelton, CT, USA). The minimum adhesion inhibitory concentration (MAIC) was determined as the concentration inhibiting greater than 90% bacterial adhesion. […]
fibronectin. Fibronectin was used to coat plates at 4 °C overnight at 20 μg/mL.
Wells were washed with PBS and blocked with 1% BSA. Washed bacteria (OD600 of 1) were added with the relevant concentration of allantodapsone or vehicle control, and incubated for 2 hours at 37 °C. Adherent cells were washed, fixed, stained with crystal violet and wells further washed. The dye was dissolved in acetic acid and the absorbance measured at 570 nm. […]

S. aureus SH1000 [2] = assay: Adhesion of S. aureus SH1000 to immobilized fibrinogen (crystal violet); type: cell-based, Staphylococcus aureus; conditions: for IC50: Staphylococcus aureus
Experimental: FIG 2 Allantodapsone inhibits S. aureus adhesion to fibrinogen. (A) S. aureus Newman stationary phase and (B) exponential phase. (C) S. aureus SH1000 stationary phase and (D) exponential phase bacteria. Fibrinogen was used to coat plates at 4°C overnight at 10 μg/mL. Wells were washed with PBS and blocked with 1% BSA. Washed bacteria (OD600 of 1) were mixed with the relevant concentration of allantodapsone or vehicle control for 5 min, and added to the wells, incubating for 2 h at 37°C. Adherent cells were washed, fixed, and stained with crystal violet, and wells further washed. The dye was dissolved in acetic acid and the absorbance measured at 570 nm. Compounds were screened at a concentration of 70 μM and compared to their vehicle control. Statistical analysis was carried out using repeated measures ANOVA followed by multiple comparisons Dunnett’s tests using GraphPad PRISM. **, P ≤ 0.01; ***, P ≤ 0.001; ****, P ≤ 0.0001 (n = 3).
Adhesion assays were carried out according to Hartford et al. ([37]). Briefly, plates were coated with 10 μg/mL fibrinogen (Calbiochem, Darmstadt, Germany) or 20 μg/mL fibronectin (Sigma-Aldrich, Ireland) for 2 h at 37°C or for 16 h at 4°C. Plates were blocked with 1% BSA at 37°C for 1 h and washed 3 times in PBS. Washed bacteria were incubated at 37°C for 2 h. Adherent bacteria were washed three times in PBS and fixed in 5–9% formaldehyde at room temperature for 30 min. Wells were washed three times in PBS and stained using 5% crystal violet for 20 min. Wells were washed three times in PBS, and the crystal violet solubilized using 5% acetic acid. Plates were read at 570 nm on a Wallac Victor2, (Shelton, CT, USA). The minimum adhesion inhibitory concentration (MAIC) was determined as the concentration inhibiting greater than 90% bacterial adhesion.
Compounds were added to the bacterial suspension prior to addition to the wells. In each experiment, vehicle controls were prepared using the same volume of vehicle for the matching test compound.

L. lactis ClfA = assay: Adhesion of L. lactis ClfA to immobilized fibrinogen; type: cell-based, Lactococcus lactis
Experimental: FIG 1 Allantodapsone inhibits S. aureus Newman adhesion to fibrinogen. Dose response curves for S. aureus Newman (A), L. lactis ClfA (B), and L. lactis ClfB (C) adhesion to fibrinogen. Fibrinogen was used to coat plates at 4°C overnight at 10 μg/mL. Wells were washed with PBS and blocked with 1% BSA. Washed bacteria (OD600 of 1) were mixed with the relevant concentration of allantodapsone or vehicle control (DMSO) for 5 min, and added to the wells, incubating for 2 h at 37°C. Adherent cells were washed, fixed, and stained with crystal violet, and wells further washed. The dye was dissolved in acetic acid and the absorbance measured at 570 nm. IC50 values were generated using GraphPad Prism 9.0 GraphPad software, San Diego, CA. Data are representative of three experiments with error presented as SEM.
as §1, with “Adherent bacteria were washed three times in PBS and fixed in 5–9% formaldehyde at room temperature for 30 min. Wells were washed three times in PBS and stained using 5% crystal violet for 20 min. Wells were washed three times in PBS, and the crystal violet solubilized using 5% acetic acid.” left out

Structure (SMILES): Nc1ccc(S(=O)(=O)c2ccc(NCN3C(=O)NC(=O)C(=O)C3=O)cc2)cc1 [Allantodapsone]
- toxic effect on human cells, MTT (words) (U-937 cells): no toxic effect
- toxic effect on human cells, MTT (words) (U-937 cells; listed as allantodapsone): no toxic effects
- inhibition of adhesion to fibronectin (words) (S. aureus SH1000 [1]): does not inhibit
- inhibition of adhesion to fibronectin (words) (S. aureus SH1000 [1]; listed as allantodapsone): did not inhibit
- inhibition of adhesion to fibrinogen (S. aureus SH1000 [2]; S. aureus SH1000, stationary and exponential phase, compounds screened at 70 μM (Fig. 2)): inhibited
- IC50 (S. aureus SH1000 [2]; SH1000, read-out: IC50, inhibition of adhesion to fibrinogen, S. aureus SH1000 exponential phase): 15.6 µM
- IC50 (S. aureus SH1000 [2]; SH1000, read-out: IC50, inhibition of adhesion to fibrinogen, S. aureus SH1000 stationary phase): 7.6 µM
- minimum adhesion inhibitory concentration (MAIC) (L. lactis ClfA; L. lactis ClfA, fibrinogen): 10 μM and 4.0 μg/mL
- IC50 (L. lactis ClfA; Lactococcus lactis, read-out: IC50, inhibition of adhesion to fibrinogen): 3.8 µM
